We go through three substances from patent publication US10196556B2, “Surfactant composition” (RHODIA OPERATIONS, priority 2012, dated 2019).

This series can be described thus: Static foam test (Waring blender), foam persistence. It counts as physicochemical. To be noted: for Foam Volume: ambient temperature; for Foam Quality (%): from flash foam volume and 200 ml solution volume. Here is the method: In order to perform static foam testing, 10% aqueous stock solutions of the surfactant compositions were prepared in distilled water. These were added to 10% w/w aqueous sodium chloride solution, such that the concentration of the surfactant in the brine was 1000 ppm.
Surfactant compositions according to the invention were benchmarked against the individual surfactants. A Waring type blender was used.
The flash foam volumes were measured by taking 200 ml of a surfactant composition according to the invention, subjecting it to high shear for 30 seconds at ambient temperature (20° C.) and then transferring the foam immediately to a measuring cylinder (1000 ml) for measurement. This initial volume was the flash volume. The foam and liquid volume was monitored for a further 10 minutes.
The ‘half-life’ of the foam was defined as the time taken for 100 ml of fluid to drain from the foam. Without being bound by theory, an increase in the half-life corresponds to a reduction in the liquid drainage rate and reflects the texture of the foam. Denser foams, as a rule, tend to take longer to drain and therefore are more persistent.
Static foam tests are a rapid and relatively straightforward method to screen the foam performance of surfactants. The method provides information on the stability and quality, i.e. texture (structure), of the foam produced in a Waring blender. The mechanical properties of the foam lamellae and foam structure are determined to some extent by the packing of the surfactant molecules at the gas/liquid interface. The foam structure influences liquid drainage rates and therefore, the persistence or stability of the foam.
Surfactant solutions (200 ml) were subjected to high shear for 30 seconds at ambient temperatures and the foam transferred immediately to a measuring cylinder (1000 ml). The foam and liquid volume was monitored for a further 10 minutes. 10% active aqueous stock solutions of the surfactants were prepared in distilled water and these were added to 10% w/w aqueous sodium chloride solution. The concentration of the surfactant in the brine was 1000 ppm.
The initial foam volume is also called the ‘flash’ foam.

Setting [1] is: 0 s (flash foam), 1000 ppm surfactant in 10% w/w NaCl.
The mark [2] stands for this setting: 120 s, 1000 ppm surfactant in 10% w/w NaCl.
Where [3] appears, read: 240 s, 1000 ppm surfactant in 10% w/w NaCl.
Setting [4] is: 360 s, 1000 ppm surfactant in 10% w/w NaCl.
The mark [5] stands for this setting: 480 s, 1000 ppm surfactant in 10% w/w NaCl.
Setting [6] is: 600 s, 1000 ppm surfactant in 10% w/w NaCl.
Where [7] appears, read: 1000 ppm surfactant in 10% w/w NaCl.
[8] abbreviates: time for 100 ml of fluid to drain from the foam, 1000 ppm surfactant in 10% w/w NaCl.

Read-outs that look alike come from different tables or passages of the source.

As to Lauramidopropyl betaine [Mackam LMB], the “Foam Volume” value was 670 mL under setting [1]; 524 mL under setting [2]; 486 mL under setting [3]; 430 mL under setting [4]; 360 mL under setting [5]; 350 mL under setting [6]. The “Foam Quality (%)” value under setting [7] was 70.1%. Moreover, the “Half-life” value under setting [8] worked out at 4.5 min.

As for “Lauramidopropyl hydroxysultaine [Mackam LSB-50]”, the “Foam Volume” value under setting [1] amounted to 600 mL; the “Foam Volume” value under setting [2] stood at 406 mL; the “Foam Volume” value under setting [3] was 350 mL; the “Foam Volume” value under setting [4] was 280 mL; the “Foam Volume” value under setting [5] is 240 mL; the “Foam Volume” value under setting [6] amounted to 210 mL. In addition, the “Foam Quality (%)” value under setting [7] is reported as 66.7%. In addition, under setting [8], the “Half-life” value was found to be 3.2 min.

With “Sodium hydroxypropyl sulfonate lauryl glucose crosspolymer [PolySugaNate 160P]”, the “Half-life” value is 0.4 min.
